Oligonucleotides are written 5' to 3', each unit as a sugar letter and its base; * is a phosphorothioate linkage, no mark a phosphodiester; rarer units and linkages stand in square brackets, end groups in braces. Plain capitals give the bases only. e = 2'-O-(2-methoxyethyl) (MOE); [5mC] = 5-methylcytosine
Legend:
[1] = test system: H3K9me2 on merged SMN1 and SMN2 genes; assay: Genome-wide ChIP-seq analysis of H3K9me2 mark deposition in HEK293T cells; format: cell-based, human
[2] = test system: SMA mice; assay: Grip-strength test of P7 SMA mice; format: in vivo, mouse; conditions: untreated mutants ~35°
[3] = test system: SMN2 pre-mRNA; assay: Transcriptional activation by RT-qPCR of SMN2 pre-mRNA in HEK293T cells; format: cell-based, human; conditions: HDAC inhibitor alone
[4] = test system: SMA mice; assay: Righting reflex test of P7 SMA mice; format: in vivo, mouse; conditions: for righting reflex delay (in words): untreated mutant ~45 seconds
[5] = test system: H3K9me2 along the SMN2 gene; assay: ChIP-qPCR of H3K9me2 distribution along the SMN2 gene in HEK293T cells; format: cell-based, human
[6] = test system: SMA; conditions: VPA plus carnitine; cited from earlier work
[7] = test system: endogenous SMN2 E7 alternative splicing; assay: SMN2 E7 alternative splicing by radioactive RT-PCR in HEK293T cells; format: cell-based, human; conditions: HEK293T
Method: Alternative splicing was analyzed by radioactive RT-PCR followed by native polyacrylamide gel electrophoresis and autoradiography. Bars display means ± SD of percentage of the radioactivity in the FL band over the sum of radioactivity measurements in the FL and ΔE7 bands of at least three independent transfection experiments. A two-tailed Student’s t test was used to determine the significance between events. (FIG. 1A) HEK293T cells were co-transfected with the SMN2 minigene and expression vectors for WT^res and hC4 Pol II, followed by addition of α-amanitin. (FIG. 1B) Effect of camptothecin (CPT) on SMN2 E7 alternative splicing. HEK293T cells were incubated for at least 6 hours with 3 µM CPT. Combined effects on endogenous SMN2 E7 alternative splicing of transfection with 25 nM ASO1 and treatment with 3 µM TSA for 24 hr (FIG. 1C), 10 mM VPA for 24 hr (FIG. 1D), or 25 µM 5-AZA for 48 hr (FIG. 1E). Combined effects on HEK293T endogenous SMN2 E7 alternative splicing of transfection with 25 nM each of si-hnRNPA1 and si-hnRNPA2, and treatment with 3 µM TSA for 24 hr (FIG. 1F) or 10 mM VPA for 24 hr (FIG. 1G). […]
HEK293T, HeLa, and SMA type I homozygous and carrier fibroblasts 3813 and 3814 (Coriell Cell Repositories, Camden, New Jersey, United States) were grown in Dulbecco’s modified Eagle’s medium (DMEM) containing 4.5 g of glucose and 10% fetal bovine serum (Gibco) at 37° C. Cells were plated at a density of 2×10^5 cells per well in 12-well plates 24 hr before transfection. siRNA (25 nM), plasmid (500 ng), or ASO (25 nM) transfections were performed 24 hr after cells were plated, using 3 µl of Lipofectamine 2000 (Thermo Fisher Scientific) per well in 12-well plates. 24-48 h later, cells were treated with Trichostatin A (Sigma, T8552), Valproic Acid (Sigma, P4543), 5-Azacytidine (Sigma, A2385) or vehicle for the indicated time, and harvested for downstream procedures. […]

[8] = test system: H3K9Ac along the SMN2 gene; assay: ChIP-qPCR of H3K9Ac distribution along the SMN2 gene in HEK293T cells; format: cell-based, human; conditions: 10 mM VPA 12 hr or ASO1 transfection
Method: Four independent immunoprecipitation replicates were conducted per experiment. Data are represented as mean ± S.D. (n = 4, *p < 0.05, two-tailed Student's t test). […] Top: control Western blot for efficient expression of the c-Myc-SMN fusion protein encoded by plasmid […], cat.# 71687) using anti-tubulin (tub.) as loading control. Bottom: […] Distribution of these histone marks was assessed by ChIP-qPCR, with amplicons mapping near the numbered exons (E) and introns (i). Three independent immunoprecipitation replicates were conducted per experiment. Data are represented as mean ± S.D. (n = 5; in all cases p was much higher than 0.05, two-tailed Student's t test). […] Top: control Western blot for efficient expression of the […] fusion protein encoded by plasmid pEGFP-RNASEH1 (Addgene, cat.# 108699), using anti-actin (act.) as loading control. Bottom: […] Top: control Western blot for efficient AGO1 knockdown using anti-tubulin (tub.) as loading control. Bottom: […] RT-PCR conditions for FIGS. 10A, 10C and 10D were as in FIGS. 1A-1G . Approximately 2×10^6 HEK293T cells per sample were treated for 10 min in 1% (v/v) formaldehyde at room temperature to crosslink protein-DNA complexes. Crosslinking was stopped with glycine at a final concentration of 125 mM. […]

Molecule | reverting effect of VPA on SMN1/2 compared with control genes ([1]; ASO1+VPA/control+VPA, 11,738 protein-coding genes) | decrease of H3K9me2 methylation mark ([1]; HEK293T treated with VPA, merged SMN1 and SMN2 genes) | grip strength, inclination angle at which pups fall [2] | levels of SMN2 pre-mRNA (promoter-proximal amplicon) [3] | righting reflex delay (in words) [4] | effect of VPA on ASO1-promoted H3K9me2 ([5]; HEK293T transfected with ASO1 and treated with 10 mM VPA) | H3K9me2 marks along the SMN2 gene ([5]; HEK293T, ASO transfection or 10 mM VPA) | clinical effectiveness in SMA [6] | effect of hnRNPA1/A2 depletion in promoting E7 inclusion upon HDAC inhibitor treatment ([7]; 25 nM each si-hnRNPA1 and si-hnRNPA2, no ASO1, 3 µM TSA or 10 mM VPA 24 hr) | H3K9 acetylation along the SMN2 gene [8] | share of control-set genes with lower ASO1/control fold enrichment than SMN1/2 ([1]; 11,738 protein-coding genes as reference) | enrichment of H3K9me2 ChIP-seq reads compared with the control ([1]; HEK293T, merged SMN1 and SMN2 genes) | righting reflex, time to right [4] | H3K9 dimethylation, peak increase at the promoter and the alternative E7 areas ([5]; HEK293T transfected with ASO1 vs scramble oligo) | effect on SMN2 E7 inclusion, agent alone ([7]; 25 nM ASO, 3 µM TSA 24 hr, 25 µM 5-AZA 48 hr, 3 µM CPT)
CCCC(CCC)C(=O)O [VPA, valproic acid] | higher than for the majority of the control genes | 67% | ~ 30 ° | increased the levels of SMN2 pre-mRNA | not significantly changed | completely abolished the ASO1 effect | reduced the H3K9me2 marks relative to the control | failed to demonstrate effectiveness | stronger | promoted intragenic H3K9 acetylation | – | – | – | – | –
ASO1: 5′-ATTCACTTTCATAATGCTGG-3′ 2′-O-methoxyethyl-modified oligonucleotide with phosphorothioate backbone and all 5-methyl cytosines; nusinersen variant with 2-nucleotide extension (antisense eA*eT*eT*e[5mC]*eA*e[5mC]*eT*eT*eT*e[5mC]*eA*eT*eA*eA*eT*eG*e[5mC]*eT*eG*eG) | – | – | ~ 45 ° | – | greatly reduced | – | – | – | – | not affected | ~ 91 % of the genes in the control set | 44% | ~ 10 seconds | 8 fold | promoted inclusion

From US20230302036A1, “COMPOSITIONS FOR TREATMENT OF SPINAL MUSCULAR ATROPHY” (priority 2020, published 2023)
